Structures can show the parent of a compound that is named as a salt.
Target: ROCK2 (Homo sapiens, UniProt O75116)
Experiment: ROCK2 kinase inhibition assay (Caliper LABCHIP, FITC peptide substrate)
Assay type: biochemical
Conditions: 5 μM ATP, 1.5 μM peptide substrate; value ranges
In short: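 Rho kinase with 5 μM ATP and 1.5 μM FITC-AHA-AKRRRLSSLRA-OH peptide in HEPES pH 7.5, 20 mM MgCl2, 0.015% Brij-35, 4 mM DTT, DMSO <2%. EDTA stop; phospho and non-phospho peptide separated on LabChip. IC50 from dose-response fit.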

ROCK2, sequence (O75116 whole entry, species assumed): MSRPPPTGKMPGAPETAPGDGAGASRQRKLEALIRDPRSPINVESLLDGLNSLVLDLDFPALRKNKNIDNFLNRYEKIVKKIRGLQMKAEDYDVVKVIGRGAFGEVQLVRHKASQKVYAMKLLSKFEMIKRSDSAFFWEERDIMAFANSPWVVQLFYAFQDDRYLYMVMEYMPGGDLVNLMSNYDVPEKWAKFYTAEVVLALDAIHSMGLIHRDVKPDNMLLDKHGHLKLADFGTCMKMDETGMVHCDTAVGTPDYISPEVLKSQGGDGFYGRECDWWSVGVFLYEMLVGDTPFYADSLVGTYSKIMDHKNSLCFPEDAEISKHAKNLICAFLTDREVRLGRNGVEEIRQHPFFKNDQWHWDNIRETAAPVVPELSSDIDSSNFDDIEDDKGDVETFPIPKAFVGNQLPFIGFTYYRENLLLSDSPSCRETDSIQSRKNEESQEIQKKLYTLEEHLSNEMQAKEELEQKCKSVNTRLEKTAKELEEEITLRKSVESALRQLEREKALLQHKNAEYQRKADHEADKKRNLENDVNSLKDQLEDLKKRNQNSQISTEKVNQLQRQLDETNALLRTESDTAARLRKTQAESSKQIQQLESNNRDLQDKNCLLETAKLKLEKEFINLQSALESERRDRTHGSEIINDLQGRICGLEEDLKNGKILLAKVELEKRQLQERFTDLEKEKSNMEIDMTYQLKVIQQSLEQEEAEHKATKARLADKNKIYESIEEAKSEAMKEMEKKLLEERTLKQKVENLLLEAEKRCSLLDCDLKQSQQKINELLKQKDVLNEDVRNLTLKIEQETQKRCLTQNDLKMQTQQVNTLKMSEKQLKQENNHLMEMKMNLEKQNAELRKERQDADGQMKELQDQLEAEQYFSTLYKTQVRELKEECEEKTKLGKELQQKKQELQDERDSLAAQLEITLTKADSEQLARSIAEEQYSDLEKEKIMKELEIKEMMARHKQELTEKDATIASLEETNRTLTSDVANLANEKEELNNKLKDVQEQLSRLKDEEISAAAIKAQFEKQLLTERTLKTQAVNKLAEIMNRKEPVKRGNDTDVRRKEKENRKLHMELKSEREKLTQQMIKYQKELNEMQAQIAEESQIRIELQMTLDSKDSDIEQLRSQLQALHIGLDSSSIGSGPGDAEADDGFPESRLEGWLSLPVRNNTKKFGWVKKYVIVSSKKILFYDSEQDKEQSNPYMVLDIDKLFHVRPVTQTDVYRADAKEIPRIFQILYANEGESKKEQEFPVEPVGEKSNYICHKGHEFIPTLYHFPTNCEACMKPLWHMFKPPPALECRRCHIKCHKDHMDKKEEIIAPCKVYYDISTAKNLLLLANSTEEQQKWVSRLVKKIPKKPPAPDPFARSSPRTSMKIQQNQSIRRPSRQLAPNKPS

Row | SMILES | IC50
1 | COc1ccc(F)c(CN2CCN(c3ccc(-c4cn[nH]c4)c(F)c3)C2=O)c1 [Example 426, 1-(3-fluoro-4-(1H-pyrazol-4-yl)phenyl)-3-(2-fluoro-5-methoxybenzyl)imidazolidin-2-one] | 2.1 to 20 nM
2 | COc1cccc(C(C)n2ccn(-c3ccc(-c4cn[nH]c4)cc3)c2=O)c1 (single isomer, unassigned) [Example 339, 1-(4-(1H-pyrazol-4-yl)phenyl)-3-(1-(3-methoxyphenyl)ethyl)-1H-imidazol-2(3H)-one] | < 2 nM
3 | COc1cccc(C(C(=O)O)n2ccn(-c3ccc(-c4cn[nH]c4)cn3)c2=O)c1 (centres unmarked) [Example 351, 2-(3-(5-(1H-pyrazol-4-yl)pyridin-2-yl)-2-oxo-2,3-dihydro-1H-imidazol-1-yl)-2-(3-methoxyphenyl)acetic acid] | 200 to 2000 nM
4 | COc1cccc(CN2CCN(c3ccc(-c4ccnc5[nH]ccc45)cc3)C2=O)c1 [Example 65, 1-(4-(1H-Pyrrolo[2,3-b]pyridin-4-yl)phenyl)-3-(3-methoxybenzyl)imidazolidin-2-one] | 2.1 to 20 nM
5 | CCc1nc(N2CCN(C(C)c3cccc(OCC4CC4)c3)C2=O)ccc1-c1cn[nH]c1 (single isomer, unassigned) [Example 265, 1-(1-(3-(cyclopropylmethoxy)phenyl)ethyl)-3-(6-ethyl-5-(1H-pyrazol-4-yl)pyridin-2-yl)imidazolidin-2-one] | 20.1 to 200 nM
6 | Cc1cc(F)ccc1Cn1ccn(-c2ccc(-c3cn[nH]c3)cc2)c1=O [Example 403, 1-(4-(1H-pyrazol-4-yl)phenyl)-3-(4-fluoro-2-methylbenzyl)-1H-imidazol-2(3H)-one] | 20.1 to 200 nM
7 | COc1cc(-c2cn[nH]c2)ccc1N1CCN(Cc2cccc(F)c2)C1=O [Example 9, 1-(3-Fluorobenzyl)-3-(2-methoxy-4-(1H-pyrazol-4-yl)phenyl)imidazolidin-2-one] | 20.1 to 200 nM
8 | COc1cc(N2C(=O)CN(Cc3ccccc3)C2=O)ccc1-c1cn[nH]c1 [Example 88, 1-benzyl-3-(3-methoxy-4-(1H-pyrazol-4-yl)phenyl)imidazolidine-2,4-dione] | 200 to 2000 nM
9 | COc1nc(N2CCN(Cc3cc(F)ccc3C)C2=O)ccc1-c1cn[nH]c1 [Example 250, 1-(5-fluoro-2-methylbenzyl)-3-(6-methoxy-5-(1H-pyrazol-4-yl)pyridin-2-yl)imidazolidin-2-one] | 2.1 to 20 nM
10 | COc1cccc(Cn2ccn(-c3ccc(-c4cn[nH]c4)cc3)c2=O)c1 [Example 334, l-(4-(1H-pyrazol-4-yl)phenyl)-3-(3-methoxybenzyl)-1H-imidazol-2(3H)-one] | < 2 nM
11 | COc1ccc(F)cc1Cn1ccn(-c2ccc(-c3cn[nH]c3)c(OC)n2)c1=O [Example 374, 1-(5-fluoro-2-methoxybenzyl)-3-(6-methoxy-5-(1H-pyrazol-4-yl)pyridin-2-yl)-1H-imidazol-2(3H)-one] | 2.1 to 20 nM
12 | COc1cc(N2CCN(Cc3c(F)cccc3F)C2=O)ccc1-c1cn[nH]c1 [Example 16, 1-(2,6-Difluorobenzyl)-3-(3-methoxy-4-(1H-pyrazol-4-yl)phenyl)imidazolidin-2-one] | 20.1 to 200 nM
13 | O=c1n(Cc2cccc(F)c2)ccn1-c1ccc(-c2cn[nH]c2)cc1 [Example 321] | 2.1 to 20 nM
14 | CCc1nc(N2CCN(C(C)c3cc(F)cc(OC)c3)C2=O)ccc1-c1cn[nH]c1 (single isomer, unassigned) [Example 269, 1-(6-ethyl-5-(1H-pyrazol-4-yl)pyridin-2-yl)-3-(1-(3-fluoro-5-methoxyphenyl)ethyl)imidazolidin-2-one] | 20.1 to 200 nM
15 | COc1cc(N2C(=O)CN(Cc3cc(F)ccc3F)C2=O)ccc1-c1cn[nH]c1 [Example 92, 1-(2,5-difluorobenzyl)-3-(3-methoxy-4-(1H-pyrazol-4-yl)phenyl)imidazolidine-2,4-dione, TFA] | 200 to 2000 nM
16 | COc1cc(-c2cn[nH]c2)ccc1N1CCN(CCc2ccccc2F)C1=O [Example 11, 1-(2-Fluorophenethyl)-3-(2-methoxy-4-(1H-pyrazol-4-yl)phenyl)imidazolidin-2-one] | 20.1 to 200 nM
17 | CCc1cc(-n2ccn(C(C)c3cccc(OC)c3)c2=O)ccc1-c1cn[nH]c1 (single isomer, unassigned) [Example 353, 1-(3-ethyl-4-(1H-pyrazol-4-yl)phenyl)-3-(1-(3-methoxyphenyl)ethyl)-1H-imidazol-2(3H)-one] | 2.1 to 20 nM
18 | CCc1cc(-n2ccn(Cc3cccc(OC)c3)c2=O)ccc1-c1cn[nH]c1 [Example 453, 1-(3-ethyl-4-(1H-pyrazol-4-yl)phenyl)-3-(3-methoxybenzyl)-1H-imidazol-2(3H)-one] | 20.1 to 200 nM
19 | COc1cc(CN2C(=O)N(c3ccc(-c4cn[nH]c4)cn3)C[C@H]2CO)ccc1F [Example 311, (S)-1-(5-(1H-Pyrazol-4-yl)pyridin-2-yl)-3-(4-fluoro-3-methoxybenzyl)-4-(hydroxymethyl)imidazolidin-2-one] | 20.1 to 200 nM
20 | COc1cccc(C(C(=O)O)n2ccn(-c3ccc(-c4cn[nH]c4)c(OC)c3)c2=O)c1 (centres unmarked) [Example 352, 2-(3-(3-methoxy-4-(1H-pyrazol-4-yl)phenyl)-2-oxo-2,3-dihydro-1H-imidazol-1-yl)-2-(3-methoxyphenyl)acetic acid] | 200 to 2000 nM
21 | COc1nc(N2CCN(Cc3cccc(Cl)c3)C2=O)ccc1-c1cn[nH]c1 [Example 256, 1-(3-chlorobenzyl)-3-(6-methoxy-5-(1H-pyrazol-4-yl)pyridin-2-yl)imidazolidin-2-one] | 2.1 to 20 nM
22 | O=c1n(Cc2cc(F)cc(OCC3CC3)c2)ccn1-c1ccc(-c2cn[nH]c2)cc1 [Example 396, 1-(4-(1H-pyrazol-4-yl)phenyl)-3-(3-(cyclopropylmethoxy)-5-fluorobenzyl)-1H-imidazol-2(3H)-one] | 20.1 to 200 nM
23 | COc1cccc(C(C)N2CCN(c3ccc(-c4cn[nH]c4)cn3)C2=O)c1 (single isomer, unassigned) [Example 459, 1-(5-(1H-pyrazol-4-yl)pyridin-2-yl)-3-(1-(3-methoxyphenyl)ethyl)imidazolidin-2-one] | 20.1 to 200 nM
24 | O=C1CN(c2ccc(-c3cn[nH]c3)cc2)C(=O)N1Cc1cc(F)ccc1F [Example 115, 1-(4-(1H-pyrazol-4-yl)phenyl)-3-(2,5-difluorobenzyl) imidazolidine-2,4-dione] | 20.1 to 200 nM
25 | CC(c1ccccc1)n1ccn(-c2ccc(-c3cn[nH]c3)cc2)c1=O (single isomer, unassigned; (+)) [Example 72, (+)-1-(4-(1H-pyrazol-4-yl)phenyl)-3-(1-phenylethyl)-1H-imidazol-2(3H)-one] | 2.1 to 20 nM
26 | CC(C)COc1cccc(CN2CCN(c3ccc(-c4cn[nH]c4)c(F)c3)C2=O)c1 [Example 443, 1-(3-fluoro-4-(1H-pyrazol-4-yl)phenyl)-3-(3-isobutoxybenzyl)imidazolidin-2-one] | 2.1 to 20 nM
27 | O=C1N(Cc2ccccc2)CCN1c1ccc(-c2ccncc2F)cc1 [Example 52, 1-benzyl-3-(4-(3-fluoropyridin-4-yl)phenyl)imidazolidin-2-one] | 20.1 to 200 nM
28 | COc1nc(N2CCN(CC3CCCO3)C2=O)ccc1-c1cn[nH]c1 (centres unmarked) [Example 254, 1-(6-methoxy-5-(1H-pyrazol-4-yl)pyridin-2-yl)-3-((tetrahydrofuran-2-yl)methyl)imidazolidin-2-one] | 20.1 to 200 nM
29 | COc1cccc(CN2CCN(c3ccc(-c4ccnc(N)n4)cc3)C2=O)c1 [Example 63, 1-(4-(2-Aminopyrimidin-4-yl)phenyl)-3-(3-methoxybenzyl)imidazolidin-2-one] | 20.1 to 200 nM
